According to patent publication US12605471B2 (The General Hospital Corporation, priority 2013, dated 2026):

Legend:
[1] = test system: Aβ fibril; conditions: cited from earlier work
[2] = Biodistribution of F-18 cromolyn in normal mice after intravenous injection; assay type: in vivo; conditions: i.v. tail vein
[3] = as above; assay type: in vivo; conditions: for Tissue Distribution, blood / Tissue Distribution, brain / Tissue Distribution, heart / Tissue Distribution, liver / Tissue Distribution, lung: normal mice, i.v. tail vein
Protocol: At 5 min, organ activity (DPG) was: heart: 1.09%, blood: 3.3%, lung: 1.90%, liver: 7.69%, and brain: 0.15%. […] The data is provided in Table 1 below and in bar graph format in FIG. 4.

[4] = Brain concentration of PIB analog TS3124; conditions: in vivo
[5] = molecular target: Aβ (1-40) peptides (Homo sapiens, UniProt P05067); test: UV aggregation assay; assay type: biochemical
Chain of Aβ (1-40) peptides (P05067 672-711 limits assumed): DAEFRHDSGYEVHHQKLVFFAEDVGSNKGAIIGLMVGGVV
Protocol: Aβ peptide aggregation and the impact of drugs to slow or prevent Aβ aggregation was measured by a UV absorbance assay (Findeis, 1999). Aβ (1-40) peptides, at 50 μM, were mixed with 50 μM drug in assay buffer and the plate was incubated at ambient temperature on a plate reader. The UV absorbance was monitored at 540 nm over a 2-3 h period.
Polymerization of Aβ-monomer peptides into clusters of trimers and tetramers initiates the Aβ aggregation process into protofibrils and then into fibrils that form amyloid plaques.

[6] = test system: interleukin-6 (IL-6); conditions: mice, stress-related coronary inflammation; cited from earlier work
[7] = test system: atherosclerotic plaque; conditions: mice; cited from earlier work
[8] = molecular target: Aβ peptide (Homo sapiens, UniProt P05067); test: Aβ aggregation by thioflavin T assay; assay type: biochemical
Chain of Aβ peptide (P05067 672-711 limits assumed): as above
Protocol: One of the most routinely used approaches to monitor Aβ polymerization is the thioflavin T binding assay. […] Aβ peptide at 5 μM was mixed with 10 μM thioflavin T with drug at different concentrations.

[9] = human, oral inhalation, high inspiratory rates; cited from earlier work

## O=c1c(O)c(-c2ccc(O)c(O)c2)oc2ccccc12 [3,3′,4′-Trihydroxyflavone]
[1]
  Effects on Aβ fibril formation: Inhibitory

## O=c1c(O)c(-c2cccc(O)c2)oc2cc(O)ccc12 [3,3′,7-Trihydroxyflavone]
[1]
  Effects on Aβ fibril formation: Enhancing

## O=c1cc(-c2ccc(O)c(O)c2)oc2cc(O)ccc12 [3′,4′,7-Trihydroxyflavone]
[1]
  Effects on Aβ fibril formation: Inhibitory

## O=c1c(O)c(-c2ccc(O)cc2)oc2cc(O)ccc12 [5-Deoxykaempferol]
[1]
  Effects on Aβ fibril formation: Enhancing

## O=c1cc(-c2ccccc2)oc2cc(O)cc(O)c12 [Chrysin]
[1]
  Effects on Aβ fibril formation: Enhancing

## O=C(O)c1cc(=O)c2c(OCC([18F])COc3cccc4oc(C(=O)O)cc(=O)c34)cccc2o1 [F-18 Cromolyn, 5,5′-(2-[18F]fluoropropane-1,3-diyl)bis(oxy)bis(4-oxo-4H-chromene-2-carboxylic acid)]
[2]; 30 min
  Tissue Distribution, liver: 3.11 ± 0.36 % Dose/gram
  Tissue Distribution, lung: 0.62 ± 0.19 % Dose/gram
[2]; 60 min
  Tissue Distribution, brain: 0.03 ± 0.004 % Dose/gram
  Tissue Distribution, heart: 0.18 % Dose/gram
  Tissue Distribution, lung: 0.29 ± 0.21 % Dose/gram
[3]; mice, intravenous injection, 5, 30 or 60 minute, little or no washout, FIG. 4
  brain uptake (accumulation): 1%
[3]; 5 min
  Tissue Distribution, blood: 3.31 ± 1.37 % Dose/gram
  Tissue Distribution, brain: 0.15 ± 0.37 % Dose/gram
  Tissue Distribution, heart: 1.09 ± 0.13 % Dose/gram
  Tissue Distribution, liver: 7.69 ± 0.41 % Dose/gram
  Tissue Distribution, lung: 1.90 ± 1.04 % Dose/gram
[3]; 5 min, listed as F-18 cromolyn
  Tissue Distribution, blood: 3.3 % Dose/gram
  Tissue Distribution, brain: 0.15 % Dose/gram
  Tissue Distribution, heart: 1.09 % Dose/gram
  Tissue Distribution, liver: 7.69 % Dose/gram
  Tissue Distribution, lung: 1.90 % Dose/gram
[3]; 30 min
  Tissue Distribution, blood: 0.92 ± 0.20 % Dose/gram
  Tissue Distribution, brain: 0.04 ± 0.007 % Dose/gram
  Tissue Distribution, heart: 0.32 ± 0.03 % Dose/gram
[3]; 60 min
  Tissue Distribution, blood: 0.44 ± 0.15 % Dose/gram
  Tissue Distribution, heart: 0.18 ± 0.07 % Dose/gram
  Tissue Distribution, liver: 1.76 ± 0.74 % Dose/gram

## O=c1c(O)c(-c2ccc(O)cc2)oc2cc(O)cc(O)c12 [Kaempferol]
[1]
  Effects on Aβ fibril formation: Enhancing

## O=c1cc(-c2ccc(O)c(O)c2)oc2cc(O)cc(O)c12 [Luteolin]
[1]
  Effects on Aβ fibril formation: Inhibitory

## O=c1c(O)c(-c2cc(O)c(O)c(O)c2)oc2cc(O)cc(O)c12 [Myricetin]
[1]
  Effects on Aβ fibril formation: Inhibitory

## O=c1c(O)c(-c2ccc(O)c(O)c2)oc2cc(O)cc(O)c12 [Quercetin]
[1]
  Effects on Aβ fibril formation: Inhibitory

## CC(F)CNc1ccc(-c2nc3ccc(O)cc3s2)cc1 (stereo not shown) [TS3124]
[4]
  brain concentration: 4%

## O=C([O-])c1cc(=O)c2c(OCC(O)COc3cccc4oc(C(=O)[O-])cc(=O)c34)cccc2o1.[Na+].[Na+] [cromolyn sodium, Disodium cromoglicate]
[5]; Aβ 50 μM, equimolar drug, 14 minutes in the absence of drug
  incubation time required for 50% polymerization: 75 min
[5]; equimolar concentrations with Aβ
  inhibition of the rate of Aβ polymerization: 7 fold
[6]
  release of interleukin-6 (IL-6): partially inhibited
[7]
  dinitrophenyl-albumin-induced plaque expansion: prevented
[8]; Aβ peptide 5 μM, 10 μM thioflavin T, drug at nanomolar concentration, FIG. 6
  Aβ aggregation (thioflavin T fluorescence): inhibition of Aβ aggregation
[8]; four separate in vitro assays, nanomolar concentrations
  Aβ amyloid peptide polymerization into oligomers and higher order aggregates: effectively inhibits
[9]
  inhaled drug-delivered-dose absorbed into the bloodstream: 10-15%

## Fisetin
[1]
  Effects on Aβ fibril formation: Inhibitory
